Experimental data as given in article PMC4865820, “Branched Peptide, B2088, Disrupts the Supramolecular Organization of Lipopolysaccharides and Sensitizes the Gram-negative Bacteria” (Scientific Reports, 2016).
In brackets after ≈: the same amount, converted by molar mass. Positions of bridges follow the written chain, without caps; N, C: chain ends. Non-standard residues stand in square brackets, D forms with d. Residues, ends and D or L forms follow the SMILES beside them. Chains are numbered I, II in the order given. *: point of attachment. X1 = CC[C@H](C)CCCCC(=O)*; Dab = NCC[C@H](N)C(=O)O

Experiments:
[1] = tested on: E. coli D21 and LPS outer core polysaccharide truncated mutant strains; assay: MIC ratio against LPS-truncated E. coli mutants; format: cell-based; details: oligosaccharide-truncated mutants vs wild type D21; increase seen against D21e9 lacking outer core polysaccharides
Excerpt: LPS is a complex glycosylated lipid molecule comprising of a hydrophobic lipid A and core oligosaccharides. The core oligosaccharides are structurally divided into an inner core (lipid A proximal) region and an outer core O-antigen region (Fig. 4a). To ascertain if the alterations in OM polysaccharides modify the barrier penetration and antimicrobial properties of the peptides, we determined the MIC of the peptides against 4 cell-wall defective mutants of E. coli (Fig. 4a). We report the MIC ratio (i.e., MICmut/MICwt) which is the ratio of MIC of peptides/antibiotics against oligosaccharides truncated mutant strains over MIC of wild type (D21) strains. For antibiotics that access intracellular targets through porin pathways or peptides that bind to the lipid A part of the LPS, the MIC ratio is independent of LPS truncation (Fig. 4b). However, antibiotics or peptides which interact with outer or inner core polysaccharides of the LPS are expected to show changes in the MIC ratio.
All the peptide congeners were purchased from M/s. Mimotopes Pty Ltd, Australia. The peptides were used as such and the homogeneity of peptides were confirmed by HPLC. Unless otherwise stated all the chemicals and the antibiotics tested were purchased from Sigma Aldrich (Singapore) Pte Ltd. The florescent probe, BODIPY TR cadaverine (BC) was purchased from Molecular Probes/ Invitrogen (CA, USA). E. coli LPS outer core polysaccharide truncated mutant strains were obtained from CGSG, The Coli Genetic Stock Centre, Yale University, […], USA. Relevant genotype of the strains are, D21 (rfa+); D21e19 (rfa-11) is a deficient mutant in carbohydrates close to the O-antigen part; D21e7 (rfa-1) is deficient in galactose as well as O-antigen; D21f1 (rfa-1, rfa21) lacks phosphate groups in the LPS has glucose and heptose intact; D21f2 (rfa-1, rfa-31) is deficient in heptose of the inner core[57][58].
(§1) MIC of each peptide was determined using the microdilution method in a 96 well microtitre plates (SPL Life Sciences Co., Ltd, Korea). Two-fold serial dilutions of each peptide in Mueller-Hinton Broth (MHB) was prepared from a 1 mg/ml stock solution of the peptide in the same broth, to obtain a final concentration in the range of 0.0976–50 μg/ml in each well. Bacterial suspensions (P. aeruginosa ATCC 27853, P. aeruginosa 4877, P. aeruginosa 23155, K. pneumoniae ATCC 10031 and K. pneumoniae 4299) were prepared by suspending the overnight cultured bacteria in saline and adjusting the inoculum to ~10^8 colony forming units (CFU) per ml. A further 150-fold dilution was then prepared in MHB to achieve a final cell density of 10^5–10^6 CFU/ml. In each well, 100 μl of inoculum was mixed with the equal volume of peptides at their 2× concentration. Positive and negative controls contained 200 μl of inoculum (without any peptide) and broth alone (no peptide/inoculum) respectively. Another negative control in which MHB containing 200 μl of peptide alone in its highest concentration tested (50 μg/ml) was also included to ensure that the optical density measured in the test wells was not due to turbidity of the peptides in solution. The 96 well polystyrene plates were then incubated at 37 °C for 24 h and the optical density at 600 nm (OD600) was measured every 30 min continuously using a TECAN microplate reader (TECAN Infinite 200, Austria). All the experiments were performed in two independent duplicates and the MIC was determined as the lowest peptide concentration in which no visible growth was observed.

[2] = tested on: K. pneumonia 4299; assay: microbe, parasite or virus in culture; format: cell-based, K. pneumoniae; details: for MIC: Klebsiella pneumoniae, 4299, individual peptide/antibiotics, read-out: MIC against K. pneumoniae 4299
Method in brief: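 Peptides two-fold diluted in Mueller-Hinton Broth (0.0976–50 μg/ml final) against 10^5–10^6 CFU/ml inoculum, 37 °C for 24 h with OD600 monitored every 30 min. MIC = lowest concentration with no visible growth; two independent duplicates.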

[3] = tested on: K. pneumoniae 07955; assay: microbe, parasite or virus in culture; format: cell-based; details: for MIC: Klebsiella pneumoniae, 07955, individual peptide/antibiotics, read-out: MIC against K. pneumoniae 07955
[4] = tested on: K. pneumoniae 31158; assay: microbe, parasite or virus in culture; format: cell-based; details: for MIC: Klebsiella pneumoniae, 31158, individual peptide/antibiotics, read-out: MIC against K. pneumoniae 31158
[5] = tested on: A549 cells infected with P. aeruginosa ATCC 9027; assay: Intracellular bacterial load in infected A549 cells; format: cell-based; details: 24 h; for Intracellular bacterial load: antibiotic alone, gatifloxacin at 2 μg/ml
Description: Human lung A549 epithelial cells (ATCC CCL185) were seeded at a density of 10^5 cells/well in a 24 well plate. Next day cells were infected with P. aeroginosa 9027 strains at the multiplicity of infection of 5 for 2 h. Cells were then washed thrice with PBS followed by DMEM to remove the extracellular bacteria. The washed cells were subsequently treated with 200 μg/ml gentamicin to kill any extracellular bacteria. After 1 h cells were washed with PBS again to remove the dead bacteria and the cells were either mixed with antibiotics (Tobramycin or Gatifloxacin) alone or in combination with B2088. After 24 h, the cells were lysed with 0.1% Triton-X100 and the lysates were serially diluted and plated on to a tryptic soy agar (TSA) plates for colony counting.

[6] = tested on: P. aeruginosa DR4877/07; assay: microbe, parasite or virus in culture; details: for MIC: Pseudomonas aeruginosa, DR4877/07, 24 h, read-out: MIC of antibiotics
Description: as §1, with “Austria).” for “Austria). All the experiments were performed in two independent duplicates and the MIC was determined as the lowest peptide concentration in which no visible growth was observed.”

[7] = MHB, 10^5–10^6 CFU/ml, 37 °C, 24 h, two independent duplicates

With `CC(C)[C@H](NC(=O)[C@H](CCCCN)NC(=O)[C@H](CCCNC(=N)N)NC(=O)CNC(=O)[C@@H](N)CCCNC(=N)N)C(=O)N[C@H](C(=O)N[C@@H](CCCNC(=N)N)C(=O)N[C@@H](CCCNC(=N)N)C(=O)NCCCC[C@H](NC(=O)[C@H](CCCNC(=N)N)NC(=O)[C@H](CCCNC(=N)N)NC(=O)[C@@H](NC(=O)[C@@H](NC(=O)[C@H](CCCCN)NC(=O)[C@H](CCCNC(=N)N)NC(=O)CNC(=O)[C@@H](N)CCCNC(=N)N)C(C)C)C(C)C)C(=O)N[C@@H](CCCCN)C(=O)O)C(C)C` [B2088] (I: H-RGRKVVRRKK-OH / II: H-RGRKVVRR; amide I:9-II:C; N-terminus and C-terminus assumed) as the molecule, how does the “MIC ratio (MICmut/MICwt)” value [1] read?
Its value is “no apparent change”.

What about the “MIC against K. pneumoniae 4299” value ([2]; 24 h) of the same molecule?
Its value is 12.5 µg/mL (≈ 5.46 µM).

And the “Minimum Inhibitory Concentration against K. pneumonia 4299” value ([2]; 24 h)?
The value was 2.7 µM.

What about the “MIC against K. pneumoniae 07955” value ([3]; 07955, 24 h) of the same molecule?
Its value is 6.25 µg/mL (≈ 2.73 µM).

What about the “MIC against K. pneumoniae 31158” value ([4]; 31158, 24 h) of the same molecule?
The value was 12.5 µg/mL (≈ 5.46 µM).

And the Intracellular bacterial burden ([5]; B2088 alone at 200 μg/ml)?
The Intracellular bacterial burden was “did not decrease the intracellular bacterial burden”.

Which results are given for `COc1c(N2CCNC(C)C2)c(F)cc2c(=O)c(C(=O)O)cn(C3CC3)c12` (stereo not drawn) [Gatifloxacin]?
MIC [6]: 31.2 µg/mL; MIC [2]: 1.56 µg/mL (≈ 4.16 µM); MIC [3]: 1.56 µg/mL (≈ 4.16 µM); MIC [4]: 1.56 µg/mL (≈ 4.16 µM); Intracellular bacterial load [5]: marked decrease in the intracellular bacterial burden

With `CC[C@H](C)CCCCC(=O)N[C@@H](CCN)C(=O)N[C@H](C(=O)N[C@@H](CCN)C(=O)N[C@H]1CCNC(=O)[C@H]([C@@H](C)O)NC(=O)[C@H](CCN)NC(=O)[C@H](CCN)NC(=O)[C@H](CC(C)C)NC(=O)[C@@H](Cc2ccccc2)NC(=O)[C@H](CCN)NC1=O)[C@@H](C)O` [Polymyxin B, polymyxin B, reference compound] (X1-[Dab]T[Dab][Dab][Dab][dF]L[Dab][Dab]T; lactam 4-C (inferred); N-terminus assumed) as the molecule, how does the “MIC ratio (MICmut/MICwt)” value [1] read?
Its value is “did not show any change”.

What about the “Minimum Inhibitory Concentration against P. aeruginosa DR4877/07” value [6, 7] of the same molecule?
Its value is 1.13 µM.

And the MIC of Polymyxin B against this strain ([6]; alone)?
Its MIC of Polymyxin B against this strain is 1.56 µg/mL.

What about the “Minimum Inhibitory Concentration against K. pneumonia 4299” value [2, 7] of the same molecule?
The value was 1.13 µM.

Which “MIC ratio (MICmut/MICwt)” value [1] does the source give for `NC[C@H]1O[C@H](O[C@H]2[C@H](O)[C@@H](O[C@H]3O[C@H](CO)[C@@H](O)[C@H](N)[C@H]3O)[C@H](N)C[C@@H]2N)[C@H](N)C[C@@H]1O` [Tobramycin] here?
The value was “marked increase”.

And the MIC [6]?
Its MIC is 800 µg/mL.

And the MIC [2]?
The MIC was 0.024 µg/mL (≈ 0.0513 µM).

And the MIC [3]?
The MIC was 25 µg/mL (≈ 53.5 µM).

And the MIC [4]?
Its MIC is 0.012 µg/mL (≈ 0.0257 µM).

What about the Intracellular bacterial load [5] of the same molecule?
Its Intracellular bacterial load is “decreased the intracellular bacterial load”.
